In paper PMC7932521, “2-aminobenzimidazoles for leishmaniasis: From initial hit discovery to in vivo profiling” (PLoS Neglected Tropical Diseases, 2021):
Where two headings read alike, the source gives them in different places.

What was measured:
Format in all cases: cell-based
[1] = system: Leishmania infantum MHOM/MA(BE)/67/ITMAP263 amastigotes; assay: L. infantum intracellular amastigote assay in PMM; settings: for SI: selectivity index (CC50 / IC50): CC50 / L. infantum IC50; for IC50: read-out: L. infantum IC50
Method in brief: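 Mouse peritoneal macrophages infected with hamster spleen-derived amastigotes (2 h, 37°C), then exposed to 4-fold dilutions from 64 μM (DMSO <1%) for 5 days at 37°C, 5% CO2. Burden scored microscopically after Giemsa staining as percent reduction vs untreated wells; IC50 as geometric mean of ≥2 experiments.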

[2] = target: T1, 5-HT2A (Homo sapiens, UniProt P28223); assay: Bioprofiling 6pt Ag 5-HT2A CHO; settings: agonist readout
T1 construct: expressed in transfected cells; host or cells: CHO
Method: (§1) The compounds were evaluated across a panel of 20 liability targets (37 functional assays) which included functional cell-based GPCRs and ion channels in both agonist and antagonist readout, measuring calcium flux and biochemical functional assays for nuclear hormone receptors and phosphodiesterases using TR-FRET format, in a 6 point 1:3 dilution dose series (maximum final concentration of 10 μM).

[3] = target: T2, Alpha1A (Homo sapiens, UniProt P35348); assay: Bioprofiling 6pt Ag Alpha1A CHO; settings: agonist readout
T2 construct: expressed in transfected cells; host or cells: CHO
T2 sequence (P35348 1-466): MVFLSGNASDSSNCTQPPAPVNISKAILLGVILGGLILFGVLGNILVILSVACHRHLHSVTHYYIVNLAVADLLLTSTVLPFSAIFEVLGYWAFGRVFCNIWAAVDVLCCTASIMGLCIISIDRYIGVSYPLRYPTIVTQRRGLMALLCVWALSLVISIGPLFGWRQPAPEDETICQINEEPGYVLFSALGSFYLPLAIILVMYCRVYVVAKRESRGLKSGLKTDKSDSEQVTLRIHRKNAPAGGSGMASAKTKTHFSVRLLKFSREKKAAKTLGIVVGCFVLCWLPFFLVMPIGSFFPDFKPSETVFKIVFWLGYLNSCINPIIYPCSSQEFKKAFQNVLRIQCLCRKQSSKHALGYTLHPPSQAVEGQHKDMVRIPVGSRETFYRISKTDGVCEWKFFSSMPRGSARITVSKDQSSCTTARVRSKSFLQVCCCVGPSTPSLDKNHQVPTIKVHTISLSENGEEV
Method: as §1

[4] = target: T3, B2 (Homo sapiens, UniProt P30411); assay: Bioprofiling 6pt Ag B2 CHO; settings: agonist readout
T3 construct: expressed in transfected cells; host or cells: CHO
T3 sequence (P30411 1-391): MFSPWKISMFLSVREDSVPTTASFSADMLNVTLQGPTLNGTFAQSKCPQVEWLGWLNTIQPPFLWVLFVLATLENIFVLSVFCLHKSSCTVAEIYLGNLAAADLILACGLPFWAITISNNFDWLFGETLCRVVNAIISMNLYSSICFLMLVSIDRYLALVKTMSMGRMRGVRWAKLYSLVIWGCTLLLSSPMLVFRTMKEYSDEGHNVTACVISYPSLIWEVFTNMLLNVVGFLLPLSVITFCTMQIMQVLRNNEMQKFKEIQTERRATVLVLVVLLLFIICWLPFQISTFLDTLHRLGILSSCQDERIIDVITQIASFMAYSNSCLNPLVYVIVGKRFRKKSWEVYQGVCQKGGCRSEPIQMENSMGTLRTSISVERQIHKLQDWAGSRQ
Method: as §1

[5] = target: T4, CB1 (Homo sapiens, UniProt P21554); assay: Bioprofiling 6pt Ag CB1 CHO; settings: agonist readout
T4 construct: expressed in transfected cells; host or cells: CHO
Method: as §1

[6] = target: T5, ETA (Homo sapiens, UniProt P25101); assay: Bioprofiling 6pt Ag ETA CHO; settings: agonist readout
T5 construct: expressed in transfected cells; host or cells: CHO
T5 sequence (P25101 21-427): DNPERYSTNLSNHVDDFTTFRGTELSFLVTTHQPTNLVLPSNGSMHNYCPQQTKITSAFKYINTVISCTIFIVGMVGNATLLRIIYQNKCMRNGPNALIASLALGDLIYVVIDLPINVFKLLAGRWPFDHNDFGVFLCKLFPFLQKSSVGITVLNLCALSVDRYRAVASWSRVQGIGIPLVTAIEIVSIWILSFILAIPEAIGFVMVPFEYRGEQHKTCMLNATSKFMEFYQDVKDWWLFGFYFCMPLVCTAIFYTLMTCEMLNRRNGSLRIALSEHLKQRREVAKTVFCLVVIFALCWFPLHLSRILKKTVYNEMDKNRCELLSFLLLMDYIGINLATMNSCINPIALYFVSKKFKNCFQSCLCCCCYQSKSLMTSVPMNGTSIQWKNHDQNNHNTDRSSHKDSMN
Method: as §1

[7] = target: T6, Opioid mu (Homo sapiens, UniProt P35372); assay: Bioprofiling 6pt Ag Opioid mu CHO; settings: agonist readout
T6 construct: expressed in transfected cells; host or cells: CHO
Method: as §1

[8] = target: T7, 5-HT2B (Homo sapiens, UniProt P41595); assay: Bioprofiling 6pt Antag 5-HT2B CHO; settings: antagonist readout vs Serotonin (5-HT)
T7 construct: expressed in transfected cells; host or cells: CHO
Method: as §1

[9] = system: P2Y; assay: Bioprofiling 6pt Antag P2Y CHO; settings: antagonist readout vs ATP; read-out: Bioprofiling 6pt Antag P2Y CHO Hamster IC50
Method: as §1

[10] = Leishmania infantum, 120 h, intracellular amastigotes in PMM, 5 days

T1 sequence (P28223 whole entry): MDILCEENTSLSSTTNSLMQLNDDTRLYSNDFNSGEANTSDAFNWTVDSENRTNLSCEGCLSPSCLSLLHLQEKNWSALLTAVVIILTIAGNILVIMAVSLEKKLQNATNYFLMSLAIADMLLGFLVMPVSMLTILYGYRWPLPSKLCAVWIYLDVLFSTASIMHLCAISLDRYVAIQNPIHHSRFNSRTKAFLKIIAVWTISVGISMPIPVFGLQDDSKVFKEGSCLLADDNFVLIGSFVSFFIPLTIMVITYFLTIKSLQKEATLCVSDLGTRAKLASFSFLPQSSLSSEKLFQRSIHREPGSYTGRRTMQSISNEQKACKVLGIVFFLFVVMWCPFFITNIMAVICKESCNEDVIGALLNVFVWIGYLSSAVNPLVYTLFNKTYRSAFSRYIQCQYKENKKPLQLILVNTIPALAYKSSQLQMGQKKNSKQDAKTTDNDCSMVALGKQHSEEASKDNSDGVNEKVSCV
T7 sequence (P41595 whole entry): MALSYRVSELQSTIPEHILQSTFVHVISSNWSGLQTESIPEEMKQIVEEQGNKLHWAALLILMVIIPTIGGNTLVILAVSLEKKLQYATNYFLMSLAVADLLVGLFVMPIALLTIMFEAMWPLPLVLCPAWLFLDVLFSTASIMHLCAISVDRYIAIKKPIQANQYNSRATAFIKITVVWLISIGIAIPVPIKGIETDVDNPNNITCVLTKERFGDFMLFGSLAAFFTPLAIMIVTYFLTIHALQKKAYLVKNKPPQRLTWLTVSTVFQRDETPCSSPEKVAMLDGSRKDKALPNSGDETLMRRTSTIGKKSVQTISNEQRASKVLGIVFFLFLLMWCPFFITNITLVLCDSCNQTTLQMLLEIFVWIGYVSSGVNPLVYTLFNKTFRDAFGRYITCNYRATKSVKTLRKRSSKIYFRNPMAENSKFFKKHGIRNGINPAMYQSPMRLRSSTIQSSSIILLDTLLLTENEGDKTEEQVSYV
T6 sequence (P35372 whole entry): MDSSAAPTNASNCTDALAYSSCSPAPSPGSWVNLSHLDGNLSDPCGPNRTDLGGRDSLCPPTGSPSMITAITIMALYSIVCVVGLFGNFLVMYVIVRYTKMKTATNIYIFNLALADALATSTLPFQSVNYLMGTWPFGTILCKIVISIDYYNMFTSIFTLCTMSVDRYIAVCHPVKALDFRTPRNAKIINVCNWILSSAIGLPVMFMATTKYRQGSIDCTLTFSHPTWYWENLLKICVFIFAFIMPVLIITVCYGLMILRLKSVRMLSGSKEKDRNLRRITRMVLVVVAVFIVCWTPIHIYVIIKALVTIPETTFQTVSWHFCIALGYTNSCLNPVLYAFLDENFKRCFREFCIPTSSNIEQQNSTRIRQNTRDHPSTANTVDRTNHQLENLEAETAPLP
T4 sequence (P21554 whole entry): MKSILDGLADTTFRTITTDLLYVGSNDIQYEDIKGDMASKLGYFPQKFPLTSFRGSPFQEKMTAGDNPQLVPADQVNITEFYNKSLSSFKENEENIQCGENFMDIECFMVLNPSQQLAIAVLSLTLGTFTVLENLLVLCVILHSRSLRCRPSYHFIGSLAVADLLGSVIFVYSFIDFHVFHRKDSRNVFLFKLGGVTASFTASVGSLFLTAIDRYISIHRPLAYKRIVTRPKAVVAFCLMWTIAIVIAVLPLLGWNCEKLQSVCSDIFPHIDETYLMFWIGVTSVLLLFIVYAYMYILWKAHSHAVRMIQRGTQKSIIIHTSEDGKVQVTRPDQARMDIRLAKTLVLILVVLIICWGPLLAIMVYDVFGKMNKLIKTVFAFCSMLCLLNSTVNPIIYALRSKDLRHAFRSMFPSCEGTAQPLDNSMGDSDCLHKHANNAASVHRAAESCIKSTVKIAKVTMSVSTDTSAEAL

| SMILES | SI: selectivity index (CC50 / IC50) [1] | IC50 [1, 10] [µM] | IC50 ([1]; Leishmania infantum, S1 Data) [µM] | EC50 [2] [µM] | EC50 [3] [µM] | EC50 [4] [µM] | EC50 [5] [µM] | EC50 [6] [µM] | EC50 [7] [µM] | IC50 [8] [µM] | IC50 [9] [µM] | potency compared to initial hit 1 ([1]; L. infantum IC50) [fold] | potency compared to parent compound 30 ([1]; L. infantum IC50) [fold] | IC50 ([1]; intracellular amastigotes in PMM, 5 days) [µM] |
| --- | --- | --- | --- | --- | --- | --- | --- | --- | --- | --- | --- | --- | --- | --- |
| Cn1nccc1C(=O)Nc1nc2ccc(C#N)cc2n1CC(C)(C)C [Compound 29, O=C(Nc1n(CC(C)(C)C)c(c2n1)cc(C#N)cc2)c3n(C)ncc3] | 7 | 4.1 | 4.12 | > 10 | > 10 | > 10 | > 10 | > 10 | > 10 | > 10 | > 10 | – | – | – |
| Cn1nccc1C(=O)Nc1nc2ccc(C#N)cc2n1CC(F)(F)F [Compound 30, O=C(c1ccnn1C)Nc2nc(ccc(C#N)c3)c3n2CC(F)(F)F] | 14 | 2.2 | 2.22 | > 10 | > 10 | > 10 | > 10 | > 10 | > 10 | > 10 | > 10 | – | – | – |
| Cn1nc(C(F)(F)F)cc1C(=O)Nc1nc2ccc(C#N)cc2n1CC(F)(F)F [Compound 39, O=C(c1cc(C(F)(F)F)nn1C)Nc2nc(ccc(C#N)c3)c3n2CC(F)(F)F] | 2 | 0.5 | – | > 10 | > 10 | > 10 | > 10 | > 10 | > 10 | > 10 | > 10 | 10 to 20 | 4 | 0.53 |
| COc1ccc(C(=O)Nc2nc3ccc(C#N)cc3n2CC(F)(F)F)cn1 [Compound 43, O=C(c1ccc(OC)nc1)Nc2nc(ccc(C#N)c3)c3n2CC(F)(F)F] | 5 | 7 | 6.95 | > 10 | > 10 | > 10 | > 10 | > 10 | > 10 | > 10 | > 10 | – | – | – |
| N#Cc1ccc2nc(NC(=O)c3ccnc(C(F)(F)F)c3)n(CC(F)(F)F)c2c1 [Compound 44, O=C(c1ccnc(C(F)(F)F)c1)Nc2nc(ccc(C#N)c3)c3n2CC(F)(F)F] | 5 | 0.84 | – | > 10 | > 10 | > 10 | > 10 | > 10 | > 10 | > 10 | > 10 | 10 to 20 | – | – |
| N#Cc1ccc2nc(NC(=O)c3ccc(C(F)(F)F)nc3)n(CC(F)(F)F)c2c1 [Compound 45, O=C(c1ccc(C(F)(F)F)nc1)Nc2nc(ccc(C#N)c3)c3n2CC(F)(F)F] | 2 | 4.3 | 4.28 | > 10 | > 10 | > 10 | > 10 | > 10 | > 10 | > 10 | > 10 | – | – | – |
